Test results: US20070167447A1, “Indole acetamides as inhibitors of the hepatitis c virus ns5b polymerase” (priority 2003, published 2007)
Counter-ions that a name gives are not always drawn.

Assays:
[1] = target: T1, HCV RNA dependent RNA polymerase (NS5B) (Hepatitis C virus genotype 1b, UniProt P26663); experiment: In-vitro HCV NS5B enzyme inhibition assay; format: biochemical; conditions: NS5B enzyme 5 nM, 1 h at 22° C.
T1 construct: made in house; host or cells: insect cells infected with recombinant baculovirus (as described for the cited WO 96/37619)
Description: i) In-vitro HCV NS5B Enzyme Inhibition Assay
WO 96/37619 describes the production of recombinant HCV RdRp from insect cells infected with recombinant baculovirus encoding the enzyme. […] The reference describes a polymerisation assay using poly(A) and oligo(U) as a primer or an heteropolymeric template. Incorporation of tritiated UTP or NTPs is quantified by measuring acid-insoluble radioactivity. The present inventors have employed this assay to screen the various compounds described above as inhibitors of HCV RdRp.
(§1) Incorporation of radioactive UMP was measured as follows. The standard reaction (50 μl) was carried out in a buffer containing 20 mM tris/HCl pH 7.5, 5 mM MgCl2, 1 mM DTT, 50 mM NaCl, 0.03% N-octylglucoside, 1 μCi [^3H]-UTP (40 Ci/mmol, NEN), 10 μM UTP and 10 μg/ml poly(A) or 5 μM NTPs and 5 μg/ml heteropolymeric template. Oligo(U)12 (1 μg/ml, Genset) was added as a primer in the assay working on Poly(A) template. The final NS5B enzyme concentration was 5 nM. The order of assembly was: 1) compound, 2) enzyme, 3) template/primer, 4) NTP. After 1 h incubation at 22° C. the reaction was stopped by adding 50 μl of 20% TCA and applying samples to DE81 filters. The filters were washed thoroughly with 5% TCA containing 1M Na2HPO4/NaH2PO4, pH 7.0, rinsed with water and then ethanol, air dried, and the filter-bound radioactivity was measured in the scintillation counter. […]

[2] = tested on: subgenomic HCV replicon in Huh-7 cells; experiment: Cell based HCV sub-genomic replication assay (NS3 Cell-ELISA); conditions: Hepatitis C virus; Huh-7 replicon cells, 96 hours, NS3 expression
Description: as §1
Cell clones that stably maintain subgenomic HCV replicon were obtained by transfecting Huh-7 cells with an RNA replicon identical to I377neo/NS3-3′/wt described by Lohmann et al. (1999) (EMBL-genbank No. AJ242652), followed by selection with neomycin sulfate (G418). […] Each condition was tested in duplicate and average absorbance values were used for calculations. […] After washing again as above, the reaction was developed with p-Nitrophenyl phosphate disodium substrate (Sigma) and the absorbance at 405/620 nm read at intervals. […]

T1 sequence (P26663 2420-3010): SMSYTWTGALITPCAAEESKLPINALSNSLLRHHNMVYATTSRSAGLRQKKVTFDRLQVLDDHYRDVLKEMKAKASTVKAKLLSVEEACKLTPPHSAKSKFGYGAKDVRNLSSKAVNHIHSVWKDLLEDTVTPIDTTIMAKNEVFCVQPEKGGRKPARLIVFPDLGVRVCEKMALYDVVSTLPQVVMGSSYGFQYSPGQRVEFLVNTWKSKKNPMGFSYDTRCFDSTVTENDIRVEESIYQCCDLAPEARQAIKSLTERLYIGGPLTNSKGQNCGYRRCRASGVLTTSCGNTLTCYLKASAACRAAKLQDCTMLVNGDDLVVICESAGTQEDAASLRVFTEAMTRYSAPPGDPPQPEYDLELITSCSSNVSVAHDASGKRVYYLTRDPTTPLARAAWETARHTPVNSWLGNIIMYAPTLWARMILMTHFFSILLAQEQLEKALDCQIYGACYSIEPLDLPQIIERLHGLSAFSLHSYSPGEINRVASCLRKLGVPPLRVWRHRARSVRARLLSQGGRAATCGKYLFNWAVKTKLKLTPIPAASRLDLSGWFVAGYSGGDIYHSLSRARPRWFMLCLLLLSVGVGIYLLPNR

CN(CC1CCCCN1C)C(=O)Cn1c(-c2ccccc2)c(C2CCCCC2)c2ccc(C(=O)O)cc21 (centres unmarked) [Example 15, 3-cyclohexyl-1-(2-{methyl[(1-methylpiperidin-2-yl)methyl]amino}-2-oxoethyl)-2-phenyl-1H-indole-6-carboxylic acid trifluoroacetate]
IC50 [1]: 14 nM
EC50 [2]: 270 nM
